This is an account of results in ChEMBL document CHEMBL5634079, “Development of novel celastrol-ligustrazine hybrids as potent peroxiredoxin 1 inhibitors against lung cancer” (Eur J Med Chem, 2023).

SMILES strings stand for the structures. Some results are limits rather than exact numbers.

The target of one data set is T1, Peroxiredoxin-1 (Homo sapiens, UniProt Q06830).
T1 sequence (Q06830 whole entry): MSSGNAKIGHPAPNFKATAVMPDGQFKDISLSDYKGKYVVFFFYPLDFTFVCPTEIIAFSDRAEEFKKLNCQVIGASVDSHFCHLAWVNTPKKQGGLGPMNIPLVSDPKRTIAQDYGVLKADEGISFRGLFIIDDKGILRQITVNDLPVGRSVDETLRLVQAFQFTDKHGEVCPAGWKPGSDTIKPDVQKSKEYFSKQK
In words: Inhibition of PRDX1 (unknown origin) in presence of cofactor A/cofactor B/NADPH incubated for 25 mins.

Data set [1] has as its system A549. In words: Antiproliferative activity against human A549 cells assessed as inhibition of cell growth incubated for 48 hrs by MTT assay. The following applies: A549, 48 h. The class given is functional, cell-based. A general note: Tetrazolium assays rely on reduction of a dye to a coloured formazan, in cell work by metabolically active cells.
The test system of data set [2] is SK-HEP1. In words: Antiproliferative activity against human SK-HEP1 cells assessed as inhibition of cell growth incubated for 48 hrs by MTT assay. The class given is functional, cell-based. Particulars: SK-HEP1, 48 h; call rule not given here.
Data set [3] can be described thus: Antiproliferative activity against human LTEP-a2 cells assessed as inhibition of cell growth incubated for 48 hrs by MTT assay. The data set is classed as functional, cell-based. The following applies: LTEP-A2, 48 h.
Data set [4] deals with NCI-H1975. The data set is described as follows: Antiproliferative activity against human NCI-H1975 cells assessed as inhibition of cell growth incubated for 48 hrs by MTT assay. The class given is functional, cell-based. The following applies: NCI-H1975, 48 h.
In data set [5] the test system is MDA-MB-231. The data set is described as follows: Antiproliferative activity against human MDA-MB-231 cells assessed as inhibition of cell growth incubated for 48 hrs by MTT assay. The following applies: MDA-MB-231, 48 h. The data set is classed as functional, cell-based.
Data set [6] has as its system SK-HEP1. In words: Antiproliferative activity against human SK-HEP1 cells assessed as inhibition of cell growth incubated for 48 hrs in presence of celastrol by MTT assay. The data set is classed as functional, cell-based. Particulars: SK-HEP1, 48 h.
Data set [7] relates to NCI-H1975. In words: Antiproliferative activity against human NCI-H1975 cells assessed as inhibition of cell growth incubated for 48 hrs in presence of celastrol by MTT assay. The class given is functional, cell-based. Particulars: NCI-H1975, 48 h.
Data set [8] has as its system A549. In words: Antiproliferative activity against human A549 cells assessed as inhibition of cell growth incubated for 48 hrs in presence of celastrol by MTT assay. The following applies: A549, 48 h. The class given is functional, cell-based.
For data set [9], the system named is MDA-MB-231. In words: Antiproliferative activity against human MDA-MB-231 cells assessed as inhibition of cell growth incubated for 48 hrs in presence of celastrol by MTT assay. The data set is classed as functional, cell-based. Particulars: MDA-MB-231, 48 h.
The nature of data set [10]: Antiproliferative activity against human LTEP-a2 cells assessed as inhibition of cell growth incubated for 48 hrs in presence of celastrol by MTT assay. The data set is classed as functional, cell-based. Particulars: LTEP-A2, 48 h.
For data set [11], the system named is A549. In words: Inhibition of cell migration in human A549 cells assessed as reduction in wound area at 2 uM incubated for 24 hrs by inverted microscopic analysis. The data set is classed as functional. On the set-up: scale not given: the % may be the effect or the level left.
Data set [12] is described as follows: Antiproliferative activity against human LTEP-a2 cells assessed as inhibition of cell growth incubated for 48 hrs in presence of ligustrazine by MTT assay. The data set is classed as functional, cell-based. Particulars: LTEP-A2, 48 h.
The subject of data set [13] is A549. In words: Induction of apoptosis in human A549 cells assessed as early apoptotic cells at 2 uM incubated for 48 hrs by Annexin V-FITC and PI staining based flow cytometric analysis (reference value: 0.76%). The data set is classed as functional. (In general: A flow cytometer gives signals particle by particle.)
Data set [14] deals with SK-HEP1. In words: Antiproliferative activity against human SK-HEP1 cells assessed as inhibition of cell growth incubated for 48 hrs in presence of ligustrazine by MTT assay. The class given is functional, cell-based. The following applies: SK-HEP1, 48 h.
The subject of data set [15] is A549. In words: Induction of apoptosis in human A549 cells assessed as necrotic cells at 2 uM incubated for 48 hrs by Annexin V-FITC and PI staining based flow cytometric analysis (reference value: 4.68%). The class given is functional.
Data set [16] has as its system A549. The data set is described as follows: Induction of apoptosis in human A549 cells assessed as viable cells at 2 uM incubated for 48 hrs by Annexin V-FITC and PI staining based flow cytometric analysis (reference value: 93.8%). The class given is functional. Particulars: read-out: Activity.
Data set [17] deals with NCI-H1975. In words: Antiproliferative activity against human NCI-H1975 cells assessed as inhibition of cell growth incubated for 48 hrs in presence of ligustrazine by MTT assay. Particulars: NCI-H1975, 48 h. The data set is classed as functional, cell-based.
Data set [18] can be described thus: Antitumor activity against mouse Lewis lung carcinoma cell line implanted in C57BL/6J mouse assessed as tumor growth inhibition at 1 mg/kg, ip administered every day for 19 days. The class given is functional. Particulars: 456 h, time 19 day, read-out: TGI.
Data set [19] concerns A549. In words: Inhibition of cell invasion in human A549 cells incubated for 12 to 48 hrs by crystal violet staining based microscopic analysis. The class given is functional. The following applies: dose 2-4 µM, time 12-48 hrs.
For data set [20], the system named is A549. The data set is described as follows: cells. Particulars: Homo sapiens, A549, 48 h.
Description: Antiproliferative activity against human A549 cells assessed as inhibition of cell growth incubated for 48 hrs in presence of ligustrazine by MTT assay
Data set [21] deals with A549. The data set is described as follows: Induction of apoptosis in human A549 cells assessed as late apoptotic cells at 2 uM incubated for 48 hrs by Annexin V-FITC and PI staining based flow cytometric analysis (reference value: 0.73%). The data set is classed as functional.
Data set [22] can be described thus: Toxicity in C57BL/6J mouse implanted with mouse Lewis lung carcinoma cell line assessed as decrease in body weight at 0.5 to 1 mg/kg, ip administered every day for 19 days. Particulars: in vivo, 456 h, dose 0.5-1 mg/kg, time 19 day. The data set is classed as organism-based.
Data set [23] concerns MDA-MB-231. In words: cells. The following applies: Homo sapiens, MDA-MB-231, 48 h.
Description: Antiproliferative activity against human MDA-MB-231 cells assessed as inhibition of cell growth incubated for 48 hrs in presence of ligustrazine by MTT assay

The term IC50 denotes the concentration that inhibits the measured activity by half. On to `[O-][n+]1c(CBr)c(CBr)[n+]([O-])c2ccccc21`, for which the concentration for half-maximal inhibition (IC50) at Peroxiredoxin-1 (read-out: IC50) is 14.8 µM.

For the compound `CC1=C(O)C(=O)C=C2C1=CC=C1[C@@]2(C)CC[C@@]2(C)[C@@H]3C[C@](C)(C(=O)OCc4nc(C)c(C)nc4C)CC[C@]3(C)CC[C@]12C`, the figures for the IC50 in the data set with A549 [1] and at Peroxiredoxin-1 (read-out: IC50) were 2.59 µM and 2.49 µM, respectively.

Turning to `CC1=C(OC(=O)/C=C/c2ccccc2)C(=O)C=C2C1=CC=C1[C@@]2(C)CC[C@@]2(C)[C@@H]3C[C@](C)(C(=O)OCc4nc(C)c(C)nc4C)CC[C@]3(C)CC[C@]12C`, the IC50 in the data set with A549 [1] is 2.71 µM; in the data set with SK-HEP1 [2], 1.64 µM; in [3], 3.31 µM; in the data set on NCI-H1975 [4], 1.49 µM; in the data set on MDA-MB-231 [5], 2.13 µM; at Peroxiredoxin-1 (read-out: IC50), 0.525 µM.

`CC(=O)OC1=C(C)C2=CC=C3[C@@](C)(CC[C@@]4(C)[C@@H]5C[C@](C)(C(=O)OCc6nc(C)c(C)nc6C)CC[C@]5(C)CC[C@]34C)C2=CC1=O`: the IC50 was 5.27 µM in the data set on A549 [1] and 0.481 µM on Peroxiredoxin-1 (read-out: IC50).

With `CC1=C(OC(=O)C2CCOCC2)C(=O)C=C2C1=CC=C1[C@@]2(C)CC[C@@]2(C)[C@@H]3C[C@](C)(C(=O)NCc4nc(C)c(C)nc4C)CC[C@]3(C)CC[C@]12C`, the IC50 with A549 [1] was found to be 4.28 µM; on Peroxiredoxin-1 (read-out: IC50), 1.53 µM.

In the case of `CC1=C(O)C(=O)C=C2C1=CC=C1[C@@]2(C)CC[C@@]2(C)[C@@H]3C[C@](C)(C(=O)NCc4nc(C)c(C)nc4C)CC[C@]3(C)CC[C@]12C`, the IC50 in the data set with A549 [1] turned out to be 3.39 µM; at Peroxiredoxin-1 (read-out: IC50), 0.165 µM.

Regarding `Cc1nc(C)c(C)nc1C` [LIGUSTRAZINE], the half-inhibitory concentration (IC50) with A549 [1] was > 20 µM; with SK-HEP1 [6] it was 9.67 µM; in the data set on NCI-H1975 [7] it was 5.61 µM; in the data set with A549 [8], 6.42 µM; in the data set with MDA-MB-231 [9] it was 4.86 µM; in data set [10], 9.5 µM. Further, the IC50 result on Peroxiredoxin-1 is on record as “Not Active”.

As for `CC(=O)OC1=C(C)C2=CC=C3[C@@](C)(CC[C@@]4(C)[C@@H]5C[C@](C)(C(=O)NCc6nc(C)c(C)nc6C)CC[C@]5(C)CC[C@]34C)C2=CC1=O`, the IC50 came out at 6.66 µM with A549 [1] and 1.47 µM on Peroxiredoxin-1 (read-out: IC50).

As to `CC1=C(OC(=O)C2CC2)C(=O)C=C2C1=CC=C1[C@@]2(C)CC[C@@]2(C)[C@@H]3C[C@](C)(C(=O)NCc4nc(C)c(C)nc4C)CC[C@]3(C)CC[C@]12C`, the 50% inhibitory concentration (IC50) in the data set on A549 [1] was found to be 2.57 µM; in the data set with SK-HEP1 [2] it was 2.72 µM; in data set [3], 7.46 µM; in the data set with NCI-H1975 [4], 3.15 µM; with MDA-MB-231 [5], 6.06 µM; on Peroxiredoxin-1 (read-out: IC50), 0.239 µM.

As to `CC1=C(O)C(=O)C=C2C1=CC=C1[C@@]2(C)CC[C@@]2(C)[C@@H]3C[C@](C)(C(=O)O)CC[C@]3(C)CC[C@]12C` [CELASTROL], the Activity in the data set with A549 [11] was 50%; with A549 [13], 5.21%; in the data set with A549 [15], 3.28%; with A549 [21], 5.92%; in [22], “Non-Toxic”. For the same compound, the half-inhibitory concentration (IC50) is 9.28 µM in the data set with A549 [1]; 10 µM with SK-HEP1 [2]; 9.5 µM in data set [12]; 9.67 µM with SK-HEP1 [14]; 5.61 µM with NCI-H1975 [17]; 12 µM in [3]. The half-maximal inhibitory concentration (IC50) in the data set on NCI-H1975 [4] was 6.05 µM; with A549 [20], 6.42 µM; with MDA-MB-231 [5], 4.88 µM; with MDA-MB-231 [23], 4.86 µM. The viability at 2 µM in the data set with A549 [16] is 85.6%. Besides, the inhibition in vivo at 1 mg/kg in [18] is 71%. In addition, the inhibition entry in the data set on A549 [19] is “Dose-Dependent Effect”.

On to `CCC(=O)OC1=C(C)C2=CC=C3[C@@](C)(CC[C@@]4(C)[C@@H]5C[C@](C)(C(=O)NCc6nc(C)c(C)nc6C)CC[C@]5(C)CC[C@]34C)C2=CC1=O`, for which the IC50 in the data set on A549 [1] amounted to 6.57 µM; at Peroxiredoxin-1 (read-out: IC50) it was 0.979 µM.

On to `CCCC(=O)OC1=C(C)C2=CC=C3[C@@](C)(CC[C@@]4(C)[C@@H]5C[C@](C)(C(=O)NCc6nc(C)c(C)nc6C)CC[C@]5(C)CC[C@]34C)C2=CC1=O`, for which the concentration for half-maximal inhibition (IC50) in the data set on A549 [1] worked out at 1.56 µM; in the data set on SK-HEP1 [2] it was 2.78 µM; in data set [3], 5.96 µM; in the data set on NCI-H1975 [4], 1.48 µM; in the data set on MDA-MB-231 [5] it was 3.64 µM; at Peroxiredoxin-1 (read-out: IC50), 0.285 µM.
